pEC50: −log10 of the molar value. Like-named read-outs stand apart in the source and are kept apart here.
Key:
parental HEK cells = assay: HEK parental Agonist Counterscreen Assay (non-transfected cells); type: cell-based; conditions: for Averaged Max % Response (±St. Dev.): activity relative to known control
Text: The high control for the agonist counterscreen was Forskolin not acetylcholine.

GPR139 = target: T1, GPR139 (Homo sapiens, UniProt Q6DWJ6); assay: GPR139 Agonist titration / agonist counterscreen assay (calcium detection, HEK-GPR139 cells); type: cell-based; parameters: expressed in transfected cells; host or cells: HEK Aequorin cells, Maxcyte transient transfection; conditions: GPR139 Agonist Activity; for Averaged Max % Response (±St. Dev.): activity relative to known control; for pEC50: read-out: EC50
T1 sequence (Q6DWJ6 1-353): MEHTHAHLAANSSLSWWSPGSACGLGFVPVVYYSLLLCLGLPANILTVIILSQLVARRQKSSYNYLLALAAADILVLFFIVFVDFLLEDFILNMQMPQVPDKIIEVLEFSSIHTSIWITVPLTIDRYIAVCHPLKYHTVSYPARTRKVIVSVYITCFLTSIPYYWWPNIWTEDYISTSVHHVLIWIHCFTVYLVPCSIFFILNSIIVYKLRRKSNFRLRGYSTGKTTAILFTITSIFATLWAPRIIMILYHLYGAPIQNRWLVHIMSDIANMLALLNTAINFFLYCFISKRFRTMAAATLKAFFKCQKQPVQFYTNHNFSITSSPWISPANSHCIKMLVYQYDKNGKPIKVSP
Procedure: GPR activity was assessed using a calcium detection assay. […] Negative control samples were treated with DMSO. […] Intracellular calcium was measured using Calcium 5.

[1] = HEK Agonist Activity, parental non-transfected HEK cells
[2] = values printed in E-notation without unit
[3] = Homo sapiens, HEK293, HEK Agonist Activity, parental non-transfected HEK cells
[4] = Homo sapiens, HEK293, HEK Agonist Activity section of Table 4 (parental HEK counterscreen)
[5] = HEK Agonist Activity section of Table 4 (parental HEK counterscreen)

Row | Averaged Max % Response (±St. Dev.) (GPR139) [%] | Lipophilic Efficiency (logD) (GPR139; based on logD) | Lipophilic Efficiency (logP) (GPR139; based on logP) | Hill Slope (GPR139; fitted dose-response curve) | Efficiency Ligand (GPR139; ligand efficiency) | pEC50 (GPR139; [2]) | Lipophilic Efficiency (logD) (parental HEK cells; HEK Agonist Activity section) | Lipophilic Efficiency (logP) (parental HEK cells; HEK Agonist Activity section) | Efficiency Ligand (GPR139) | Hill Slope (GPR139) | Lipophilic Efficiency (logD) (GPR139) | Lipophilic Efficiency (logP) (GPR139) | pEC50 (GPR139; HEK-GPR139 cells) | Compound | Averaged Max % Response (±St. Dev.) (parental HEK cells; HEK Agonist Activity section) [%] | pEC50 (parental HEK cells; [4]) | other results
1 | 94.95 ± 1.55 | 4.44 | 4.44 | 0.71 | 0.39 | 7.72 |  |  |  |  |  |  |  | CC(NC(=O)Cn1cc(NC(=O)c2ccccc2F)cn1)c1ccccc1Cl (stereo not drawn) [SR-01000194602] |  |  | Lipophilic Efficiency (logD) (parental HEK cells; HEK Agonist Activity): 1.58; Lipophilic Efficiency (logP) (parental HEK cells; HEK Agonist Activity): 1.58; Averaged Max % Response (±St. Dev.) (parental HEK cells; HEK Agonist Activity): 4.93 ± 4.93%; pEC50 (parental HEK cells; [1]): < 4.85
2 | 79.48 ± 15.63 | 4.84 | 4.84 | 1.63 | 0.48 | 7.94 |  |  |  |  |  |  |  | O=C(NNC(=O)C1CC1c1ccccc1)Nc1cccc(Cl)c1 (stereo not drawn) [SR-01000202338] |  |  | Lipophilic Efficiency (logD) (parental HEK cells; HEK Agonist Activity): 1.76; Lipophilic Efficiency (logP) (parental HEK cells; HEK Agonist Activity): 1.76; Averaged Max % Response (±St. Dev.) (parental HEK cells; HEK Agonist Activity): 4.74 ± 3.91%; pEC50 (parental HEK cells; [3]): < 4.85
3 | 109.36 ± 34.06 | 4.30 | 4.30 | 0.39 | 0.39 |  | 2.40 | 2.40 |  |  |  |  |  | O=C(Cc1ccccc1)CC1C=CC2=C1c1ccccc1CC2 (stereo not drawn) [SR-01000134941] | 10.65 ± 6.79 | < 4.85 | 
4 | 96.26 ± 15.22 | 5.62 | 5.61 | 0.87 | 0.34 | 7.32 | 3.15 | 3.14 |  |  |  |  |  | Cc1ccc(C(=O)NNC(=O)CSc2nnc(Cn3cnc4ccccc43)o2)cc1 [SR-01000337370] | 23.00 ± 5.22 |  | pEC50 (parental HEK cells; [5]): < 4.85
5 | 84.05 ± 13.31 |  |  |  |  |  | 1.45 | 1.38 | 0.28 | 1.29 | 3.07 | 3.01 | 6.48 | O=C(NCCCn1ccnc1)c1cc2nc3c(c(C(F)(F)F)n2n1)CCc1ccccc1-3 [SR-01000313440] | 0.31 ± 4.15 | < 4.85 | 
6 | 113.63 ± 31.77 |  |  |  |  |  | 3.41 | 3.41 | 0.40 | 0.89 | 5.11 | 5.11 | 6.56 | O=C(Cn1ncn2cccc2c1=O)NCCc1ccc(Cl)cc1 [SR-01000140172] | 2.22 ± 10.07 |  | pEC50 (parental HEK cells; [5]): < 4.85
7 | 88.73 ± 9.49 |  |  |  |  |  | 1.79 | 1.78 | 0.31 | 1.77 | 2.95 | 2.95 | 6.01 | COc1cc(OC)cc(C(=O)NNC(=O)COc2cc(C)c(Cl)c(C)c2)c1 [SR-01000358286] | 17.27 ± 10.49 |  | pEC50 (parental HEK cells; [5]): < 4.85
8 | 111.41 ± 5.44 |  |  |  |  |  | 2.09 | 2.08 | 0.38 | 0.60 | 3.68 | 3.67 | 6.44 | O=C(CSc1ccc(Cl)cc1)NNC(=O)c1ccc([N+](=O)[O-])cc1 [SR-01000286858] | 4.98 ± 9.07 | < 4.85 | 
9 | 101.45 ± 17.20 | 3.15 | 3.15 | 1.07 | 0.33 | 6.86 | 1.14 | 1.14 |  |  |  |  |  | O=C(COc1ccc2ccccc2c1)NNC(=O)Cc1cccc2ccccc12 [SR-01000316766] | −0.94 ± 3.21 | < 4.85 | 

The remaining lines, values behind:

Row | Compound | Averaged Max % Response (±St. Dev.) (GPR139) [%] | Lipophilic Efficiency (logD) (GPR139; based on logD) | Lipophilic Efficiency (logP) (GPR139; based on logP) | Hill Slope (GPR139; fitted dose-response curve) | Efficiency Ligand (GPR139; ligand efficiency) | pEC50 (GPR139; [2]) | Lipophilic Efficiency (logD) (parental HEK cells; HEK Agonist Activity section) | Lipophilic Efficiency (logP) (parental HEK cells; HEK Agonist Activity section) | Efficiency Ligand (GPR139) | Hill Slope (GPR139) | Lipophilic Efficiency (logD) (GPR139) | Lipophilic Efficiency (logP) (GPR139) | pEC50 (GPR139; HEK-GPR139 cells) | Averaged Max % Response (±St. Dev.) (parental HEK cells; HEK Agonist Activity section) [%] | pEC50 (parental HEK cells; [4]) | other results
10 | CC(C)CCNC(=O)C1C2C=CC3(CN(Cc4ccccc4Cl)C(=O)C13)O2 (stereo not drawn) [SR-01000104567] | 119.91 ± 2.22 | 5.19 | 5.19 | 0.32 | 0.40 | 7.70 |  |  |  |  |  |  |  |  |  | Lipophilic Efficiency (logD) (parental HEK cells; HEK Agonist Activity): 2.34; Lipophilic Efficiency (logP) (parental HEK cells; HEK Agonist Activity): 2.34; Averaged Max % Response (±St. Dev.) (parental HEK cells; HEK Agonist Activity): 8.02 ± 5.87%; pEC50 (parental HEK cells; [1]): < 4.85
11 | Cc1ccc(C2(C)NC(=O)N(CC(=O)NCC(C)C)C2=O)cc1 (stereo not drawn) [SR-01000048367] | 122.38 ± 5.77 | 5.64 | 5.64 | 0.74 | 0.45 | 7.44 |  |  |  |  |  |  |  |  |  | Lipophilic Efficiency (logD) (parental HEK cells; HEK Agonist Activity): 3.00; Lipophilic Efficiency (logP) (parental HEK cells; HEK Agonist Activity): 3.00; Averaged Max % Response (±St. Dev.) (parental HEK cells; HEK Agonist Activity): 8.71 ± 14.83%; pEC50 (parental HEK cells; [3]): < 4.80
12 | N[C@H](Cc1ccccc1Cl)c1nc2ccc(-c3ccncc3)cc2[nH]1.O=C(O)C(F)(F)F.O=C(O)C(F)(F)F [SR-00000003277] | 97.54 ± 11.30 |  |  |  |  |  | 2.04 | 1.13 | 0.34 | 1.48 | 3.23 | 2.32 | 6.03 | 29.67 ± 5.05 |  | pEC50 (parental HEK cells; [5]): < 4.85
13 | O=C(CCC1CCCC1)NNC(=O)CSc1ccc(Cl)cc1 [SR-01000069439] | 123.43 ± 12.00 | 3.93 | 3.93 | 0.62 | 0.46 | 7.21 | 1.55 | 1.55 |  |  |  |  |  | 1.51 ± 2.29 | < 4.83 | 
14 | Cc1c(C=O)c2ccccc2n1CC(=O)NCc1ccccc1 [SR-01000269911] | 88.11 ± 5.39 |  |  |  |  |  | 2.02 | 2.02 | 0.37 | 1.69 | 3.22 | 3.22 | 6.05 | 5.27 ± 9.17 | < 4.85 | 
15 | O=C(CNC(=O)c1ccc(Br)o1)NC1CCCc2ccccc21 (stereo not drawn) [SR-01000064101] | 90.33 ± 2.09 |  |  |  |  |  | 2.64 | 2.64 | 0.38 | 1.15 | 4.09 | 4.09 | 6.28 | 10.45 ± 2.67 | < 4.83 | 
16 | CCCn1c(CCC(=O)NCCc2ccc(OCC)cc2)nc2cccnc21 [SR-01000077930] | 102.55 ± 5.37 | 4.55 | 4.55 | 0.67 | 0.38 | 7.64 |  |  |  |  |  |  |  |  |  | Lipophilic Efficiency (logD) (parental HEK cells; HEK Agonist Activity): 1.76; Lipophilic Efficiency (logP) (parental HEK cells; HEK Agonist Activity): 1.76; Averaged Max % Response (±St. Dev.) (parental HEK cells; HEK Agonist Activity): 1.00 ± 2.79%; pEC50 (parental HEK cells; [3]): < 4.85
17 | Cc1ccc(CCNC(=O)CN2CCN(Cc3ccccc3Cl)C2=O)cc1 [SR-01000125464] | 83.25 ± 20.00 | 3.74 | 3.74 | 0.73 | 0.35 | 6.84 | 1.74 | 1.74 |  |  |  |  |  | 5.57 ± 17.96 | < 4.85 | 
18 | O=C(CSc1ccc(Cl)cc1)Nc1nnc(-c2ccco2)o1 [SR-01000021433] | 111.88 ± 11.27 | 4.59 | 4.59 | 0.56 | 0.45 | 7.14 | 2.29 | 2.29 |  |  |  |  |  | 27.04 ± 4.04 | < 4.84 | 
19 | Cc1ccc(SCC(=O)NNC(=O)CCC(=O)c2cccs2)cc1 [SR-01000069391] | 99.00 ± 11.26 | 4.39 | 4.39 | 0.48 | 0.39 | 6.77 | 2.43 | 2.43 |  |  |  |  |  | 12.32 ± 6.09 |  | pEC50 (parental HEK cells; [5]): < 4.81

— patent publication US20250099420A1, “SMALL MOLECULE MODULATORS OF GPR139 COMPLEX” (University of Florida Research Foundation, Incorporated, priority 2022, published 2025)
